ChEMBL document CHEMBL5465560, “Selectivity Literature for EUbOPEN Chemogenomic Library” (2024)

Columns and labels:
[1] = target: Death-associated protein kinase 1 (Homo sapiens, UniProt P53355); experiment: Selectivity interaction (KinomeScan (DiscoverX)) EUB0000229b DAPK1; conditions: at 10 µM
[2] = target: T1, Serine/threonine-protein kinase Sgk3 (Homo sapiens) (UniProt Q96BR1); experiment: Selectivity interaction (KinomeScan (DiscoverX)) EUB0000229b SGK3; conditions: at 10 µM
T1 sequence (whole entry): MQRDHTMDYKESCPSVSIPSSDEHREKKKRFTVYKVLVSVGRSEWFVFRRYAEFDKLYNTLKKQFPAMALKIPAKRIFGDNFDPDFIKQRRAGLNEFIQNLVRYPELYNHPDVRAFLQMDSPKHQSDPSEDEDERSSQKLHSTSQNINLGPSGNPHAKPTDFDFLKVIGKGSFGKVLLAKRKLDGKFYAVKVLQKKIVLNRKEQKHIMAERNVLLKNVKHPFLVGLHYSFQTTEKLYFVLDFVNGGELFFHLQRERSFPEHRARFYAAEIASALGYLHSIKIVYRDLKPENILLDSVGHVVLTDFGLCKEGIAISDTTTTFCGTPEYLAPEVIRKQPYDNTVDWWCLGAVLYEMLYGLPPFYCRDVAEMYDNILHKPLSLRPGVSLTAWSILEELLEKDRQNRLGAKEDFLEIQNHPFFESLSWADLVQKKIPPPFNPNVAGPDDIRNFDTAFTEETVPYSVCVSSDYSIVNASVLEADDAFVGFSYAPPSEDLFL

[3] = target: Sigma non-opioid intracellular receptor 1 (Homo sapiens) (UniProt Q99720); experiment: Selectivity interaction (GPCR panel (PDSP screen)) EUB0000311b SIGMAR1; conditions: at 10 µM
Sequence of Sigma non-opioid intracellular receptor 1 (Homo sapiens) (Q99720 whole entry): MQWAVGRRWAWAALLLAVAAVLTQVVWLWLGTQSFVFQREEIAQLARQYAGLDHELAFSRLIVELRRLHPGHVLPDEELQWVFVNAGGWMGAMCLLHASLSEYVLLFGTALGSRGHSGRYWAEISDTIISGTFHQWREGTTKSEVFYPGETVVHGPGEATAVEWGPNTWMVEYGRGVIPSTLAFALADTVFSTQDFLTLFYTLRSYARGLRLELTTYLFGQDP

[4] = target: Serine/threonine-protein kinase Nek4 (Homo sapiens) (UniProt P51957); experiment: Selectivity interaction (KinomeScan (DiscoverX)) EUB0000595a NEK4; conditions: at 10 µM
Sequence of Serine/threonine-protein kinase Nek4 (Homo sapiens) (P51957 whole entry, looked up): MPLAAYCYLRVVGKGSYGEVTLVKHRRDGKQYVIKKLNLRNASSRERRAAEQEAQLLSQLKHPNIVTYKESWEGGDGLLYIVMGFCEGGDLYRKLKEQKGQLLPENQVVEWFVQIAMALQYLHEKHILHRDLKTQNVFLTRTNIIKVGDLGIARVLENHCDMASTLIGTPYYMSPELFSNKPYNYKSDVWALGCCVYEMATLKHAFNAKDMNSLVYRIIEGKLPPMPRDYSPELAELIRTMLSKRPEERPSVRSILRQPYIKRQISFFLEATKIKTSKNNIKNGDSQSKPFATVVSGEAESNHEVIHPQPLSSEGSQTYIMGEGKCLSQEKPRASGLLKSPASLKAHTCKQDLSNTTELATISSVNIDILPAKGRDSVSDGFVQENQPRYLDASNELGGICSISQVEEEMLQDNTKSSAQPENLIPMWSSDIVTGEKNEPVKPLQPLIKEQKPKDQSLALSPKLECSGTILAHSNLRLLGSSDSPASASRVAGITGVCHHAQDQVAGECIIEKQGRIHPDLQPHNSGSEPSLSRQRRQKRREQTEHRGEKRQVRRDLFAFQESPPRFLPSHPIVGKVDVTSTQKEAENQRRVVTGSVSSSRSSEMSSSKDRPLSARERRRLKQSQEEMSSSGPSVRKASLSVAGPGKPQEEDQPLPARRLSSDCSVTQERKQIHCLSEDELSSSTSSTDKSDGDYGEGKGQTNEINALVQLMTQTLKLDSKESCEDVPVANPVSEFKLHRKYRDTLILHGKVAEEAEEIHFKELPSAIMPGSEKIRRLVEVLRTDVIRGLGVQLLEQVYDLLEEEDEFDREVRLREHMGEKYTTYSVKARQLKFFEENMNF

[5] = target: Tyrosine-protein kinase Fyn (Homo sapiens) (UniProt P06241); conditions: at 10 µM
[6] = target: Histone-lysine N-methyltransferase KMT5C (Homo sapiens) (UniProt Q86Y97); conditions: at 10 µM
Sequence of Histone-lysine N-methyltransferase KMT5C (Homo sapiens) (Q86Y97 whole entry, looked up): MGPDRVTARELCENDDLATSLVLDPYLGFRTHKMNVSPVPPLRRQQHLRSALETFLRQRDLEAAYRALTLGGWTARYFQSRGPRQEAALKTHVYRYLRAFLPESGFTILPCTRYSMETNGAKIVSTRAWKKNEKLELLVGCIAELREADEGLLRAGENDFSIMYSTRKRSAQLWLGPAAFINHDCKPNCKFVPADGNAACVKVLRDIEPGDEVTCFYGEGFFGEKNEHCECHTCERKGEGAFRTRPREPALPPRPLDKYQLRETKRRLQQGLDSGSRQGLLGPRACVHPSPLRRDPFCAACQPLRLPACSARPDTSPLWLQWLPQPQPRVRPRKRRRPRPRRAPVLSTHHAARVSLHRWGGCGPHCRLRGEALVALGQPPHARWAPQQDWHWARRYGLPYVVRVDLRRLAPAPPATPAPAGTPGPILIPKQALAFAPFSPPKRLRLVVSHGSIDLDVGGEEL

[7] = target: Ephrin type-A receptor 2 (Homo sapiens) (UniProt P29317); experiment: Selectivity interaction (KinomeScan (DiscoverX)) EUB0000045b EPHA2
Sequence of Ephrin type-A receptor 2 (Homo sapiens) (P29317 whole entry): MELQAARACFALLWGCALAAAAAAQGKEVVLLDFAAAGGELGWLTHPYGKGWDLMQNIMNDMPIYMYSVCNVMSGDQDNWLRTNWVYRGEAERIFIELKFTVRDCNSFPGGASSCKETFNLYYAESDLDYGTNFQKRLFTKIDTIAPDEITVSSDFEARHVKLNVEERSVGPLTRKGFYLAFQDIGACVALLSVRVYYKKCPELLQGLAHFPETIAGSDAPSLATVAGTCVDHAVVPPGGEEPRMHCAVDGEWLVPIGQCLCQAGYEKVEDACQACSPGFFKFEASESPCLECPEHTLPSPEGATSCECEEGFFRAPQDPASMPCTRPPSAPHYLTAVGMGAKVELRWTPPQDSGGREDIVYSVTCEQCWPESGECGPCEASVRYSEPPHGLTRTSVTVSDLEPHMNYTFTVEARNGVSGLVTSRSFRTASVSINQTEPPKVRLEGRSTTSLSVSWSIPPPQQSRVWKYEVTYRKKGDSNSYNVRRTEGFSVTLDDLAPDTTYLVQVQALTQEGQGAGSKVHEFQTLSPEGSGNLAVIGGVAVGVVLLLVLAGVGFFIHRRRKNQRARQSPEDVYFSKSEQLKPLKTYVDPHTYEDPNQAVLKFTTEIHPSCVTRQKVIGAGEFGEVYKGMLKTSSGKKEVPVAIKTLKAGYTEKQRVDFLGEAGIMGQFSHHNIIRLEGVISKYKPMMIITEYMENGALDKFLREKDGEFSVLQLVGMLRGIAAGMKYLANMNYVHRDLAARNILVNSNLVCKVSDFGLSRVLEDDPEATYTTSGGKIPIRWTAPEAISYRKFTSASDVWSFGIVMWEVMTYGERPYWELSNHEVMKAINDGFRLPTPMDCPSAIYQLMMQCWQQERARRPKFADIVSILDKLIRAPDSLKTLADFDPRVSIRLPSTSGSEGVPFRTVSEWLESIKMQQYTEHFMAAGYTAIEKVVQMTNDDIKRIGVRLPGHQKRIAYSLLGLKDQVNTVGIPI

[8] = target: Ribosomal protein S6 kinase beta-1 (Homo sapiens, UniProt P23443); experiment: Selectivity interaction (KinomeScan (DiscoverX)) EUB0001079a RPS6KB1; conditions: at 1 µM
[9] = target: Wee1-like protein kinase 2 (Homo sapiens) (UniProt P0C1S8); experiment: Selectivity interaction (KinomeScan (DiscoverX)) EUB0000666a WEE2; conditions: at 10 µM
[10] = target: T2, Histone-lysine N-methyltransferase NSD3 (Homo sapiens) (UniProt Q9BZ95); experiment: Selectivity interaction (Transferase panel (protein, RNA, and DNA methyltransferases. and EP300 (acetyltransferase))) EUB0000270b NSD3
T2 sequence (whole entry): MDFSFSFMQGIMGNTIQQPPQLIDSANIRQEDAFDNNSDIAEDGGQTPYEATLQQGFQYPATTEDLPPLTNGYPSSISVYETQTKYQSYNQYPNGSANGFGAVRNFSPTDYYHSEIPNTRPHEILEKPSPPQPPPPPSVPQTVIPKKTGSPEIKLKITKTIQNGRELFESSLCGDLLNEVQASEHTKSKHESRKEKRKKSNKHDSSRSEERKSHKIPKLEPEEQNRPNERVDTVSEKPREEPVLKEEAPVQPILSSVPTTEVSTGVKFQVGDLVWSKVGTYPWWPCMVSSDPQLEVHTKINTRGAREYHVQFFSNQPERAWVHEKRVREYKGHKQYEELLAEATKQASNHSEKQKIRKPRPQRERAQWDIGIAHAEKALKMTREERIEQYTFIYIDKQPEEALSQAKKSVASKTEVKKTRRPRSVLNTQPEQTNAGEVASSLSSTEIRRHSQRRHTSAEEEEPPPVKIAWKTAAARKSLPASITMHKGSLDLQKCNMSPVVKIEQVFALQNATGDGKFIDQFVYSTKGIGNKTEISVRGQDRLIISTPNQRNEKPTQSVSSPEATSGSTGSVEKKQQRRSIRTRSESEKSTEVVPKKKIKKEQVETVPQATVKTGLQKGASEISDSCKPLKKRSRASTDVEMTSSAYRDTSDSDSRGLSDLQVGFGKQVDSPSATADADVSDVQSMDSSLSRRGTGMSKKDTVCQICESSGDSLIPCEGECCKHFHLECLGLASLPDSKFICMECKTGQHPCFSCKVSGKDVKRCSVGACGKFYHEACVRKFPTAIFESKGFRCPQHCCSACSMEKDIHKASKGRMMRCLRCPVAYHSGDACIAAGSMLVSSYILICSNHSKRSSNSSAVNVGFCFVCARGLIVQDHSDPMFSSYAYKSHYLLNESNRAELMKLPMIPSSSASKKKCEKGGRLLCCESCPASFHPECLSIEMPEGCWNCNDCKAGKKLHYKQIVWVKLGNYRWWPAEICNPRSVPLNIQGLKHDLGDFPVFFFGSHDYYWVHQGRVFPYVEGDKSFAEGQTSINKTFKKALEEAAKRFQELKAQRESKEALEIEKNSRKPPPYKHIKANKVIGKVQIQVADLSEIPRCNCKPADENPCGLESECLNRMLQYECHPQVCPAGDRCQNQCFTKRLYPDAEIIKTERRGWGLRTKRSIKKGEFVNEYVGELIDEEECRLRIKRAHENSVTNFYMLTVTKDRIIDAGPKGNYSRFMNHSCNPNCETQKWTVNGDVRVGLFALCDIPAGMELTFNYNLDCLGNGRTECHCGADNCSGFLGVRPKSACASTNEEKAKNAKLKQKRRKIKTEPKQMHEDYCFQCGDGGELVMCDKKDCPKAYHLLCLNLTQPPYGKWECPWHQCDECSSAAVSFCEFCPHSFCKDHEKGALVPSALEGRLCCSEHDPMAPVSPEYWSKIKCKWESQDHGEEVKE

[11] = target: Proto-oncogene tyrosine-protein kinase Src (Homo sapiens, UniProt P12931); experiment: Selectivity interaction (Millipore kinase profiler) EUB0000124b SRC; conditions: at 10 µM
[12] = target: CDK3/cyclin E (Homo sapiens) (UniProt P24864+O96020+Q00526); experiment: Selectivity interaction (Upstate Kinase Profiler service (Millipore)) EUB0000056c CDK3; assay type: protein-complex assay; conditions: at 1 µM
[13] = target: Tyrosine-protein kinase Fer (Homo sapiens) (UniProt P16591); experiment: Selectivity interaction (Upstate Kinase Profiler service (Millipore)) EUB0000056c FER; conditions: at 1 µM
[14] = target: Protein kinase C delta type (Homo sapiens) (UniProt Q05655); experiment: Selectivity interaction (Upstate Kinase Profiler service (Millipore)) EUB0000056c PRKCD; conditions: at 1 µM
[15] = target: Tyrosine-protein kinase ABL1 (Homo sapiens, UniProt P00519); experiment: Selectivity interaction (Kinase panel (Invitrogen)) EUB0000639a ABL1; conditions: at 200 nM
Sequence of Tyrosine-protein kinase ABL1 (P00519 whole entry): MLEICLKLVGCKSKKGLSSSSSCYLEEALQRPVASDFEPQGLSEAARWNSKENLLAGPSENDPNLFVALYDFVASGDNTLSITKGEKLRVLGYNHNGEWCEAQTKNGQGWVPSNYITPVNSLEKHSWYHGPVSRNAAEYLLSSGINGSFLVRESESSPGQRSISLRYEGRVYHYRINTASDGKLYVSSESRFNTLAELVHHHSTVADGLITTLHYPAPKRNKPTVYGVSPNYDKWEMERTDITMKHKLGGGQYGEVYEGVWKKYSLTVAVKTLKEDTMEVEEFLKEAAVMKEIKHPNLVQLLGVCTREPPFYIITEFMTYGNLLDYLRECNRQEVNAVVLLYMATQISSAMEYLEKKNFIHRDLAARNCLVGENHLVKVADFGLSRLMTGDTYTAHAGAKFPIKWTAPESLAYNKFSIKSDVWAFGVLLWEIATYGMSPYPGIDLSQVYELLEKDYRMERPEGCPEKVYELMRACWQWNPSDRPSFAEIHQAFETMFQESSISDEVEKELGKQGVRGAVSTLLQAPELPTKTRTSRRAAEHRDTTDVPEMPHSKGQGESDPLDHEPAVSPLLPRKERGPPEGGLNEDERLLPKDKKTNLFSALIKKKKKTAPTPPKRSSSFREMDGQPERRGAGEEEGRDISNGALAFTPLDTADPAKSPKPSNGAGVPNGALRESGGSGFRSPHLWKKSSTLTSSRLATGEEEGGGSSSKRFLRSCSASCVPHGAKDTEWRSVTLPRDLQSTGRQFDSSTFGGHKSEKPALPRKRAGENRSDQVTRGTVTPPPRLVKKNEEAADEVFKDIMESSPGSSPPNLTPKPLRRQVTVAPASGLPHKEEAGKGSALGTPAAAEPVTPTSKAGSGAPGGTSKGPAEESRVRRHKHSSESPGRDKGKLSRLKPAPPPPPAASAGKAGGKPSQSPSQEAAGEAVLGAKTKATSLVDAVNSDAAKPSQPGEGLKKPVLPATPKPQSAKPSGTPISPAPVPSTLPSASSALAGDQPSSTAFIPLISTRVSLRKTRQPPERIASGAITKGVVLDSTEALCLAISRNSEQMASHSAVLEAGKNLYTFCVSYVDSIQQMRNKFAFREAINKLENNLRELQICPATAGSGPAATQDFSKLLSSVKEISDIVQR

Sequence of Death-associated protein kinase 1 (P53355 whole entry, looked up): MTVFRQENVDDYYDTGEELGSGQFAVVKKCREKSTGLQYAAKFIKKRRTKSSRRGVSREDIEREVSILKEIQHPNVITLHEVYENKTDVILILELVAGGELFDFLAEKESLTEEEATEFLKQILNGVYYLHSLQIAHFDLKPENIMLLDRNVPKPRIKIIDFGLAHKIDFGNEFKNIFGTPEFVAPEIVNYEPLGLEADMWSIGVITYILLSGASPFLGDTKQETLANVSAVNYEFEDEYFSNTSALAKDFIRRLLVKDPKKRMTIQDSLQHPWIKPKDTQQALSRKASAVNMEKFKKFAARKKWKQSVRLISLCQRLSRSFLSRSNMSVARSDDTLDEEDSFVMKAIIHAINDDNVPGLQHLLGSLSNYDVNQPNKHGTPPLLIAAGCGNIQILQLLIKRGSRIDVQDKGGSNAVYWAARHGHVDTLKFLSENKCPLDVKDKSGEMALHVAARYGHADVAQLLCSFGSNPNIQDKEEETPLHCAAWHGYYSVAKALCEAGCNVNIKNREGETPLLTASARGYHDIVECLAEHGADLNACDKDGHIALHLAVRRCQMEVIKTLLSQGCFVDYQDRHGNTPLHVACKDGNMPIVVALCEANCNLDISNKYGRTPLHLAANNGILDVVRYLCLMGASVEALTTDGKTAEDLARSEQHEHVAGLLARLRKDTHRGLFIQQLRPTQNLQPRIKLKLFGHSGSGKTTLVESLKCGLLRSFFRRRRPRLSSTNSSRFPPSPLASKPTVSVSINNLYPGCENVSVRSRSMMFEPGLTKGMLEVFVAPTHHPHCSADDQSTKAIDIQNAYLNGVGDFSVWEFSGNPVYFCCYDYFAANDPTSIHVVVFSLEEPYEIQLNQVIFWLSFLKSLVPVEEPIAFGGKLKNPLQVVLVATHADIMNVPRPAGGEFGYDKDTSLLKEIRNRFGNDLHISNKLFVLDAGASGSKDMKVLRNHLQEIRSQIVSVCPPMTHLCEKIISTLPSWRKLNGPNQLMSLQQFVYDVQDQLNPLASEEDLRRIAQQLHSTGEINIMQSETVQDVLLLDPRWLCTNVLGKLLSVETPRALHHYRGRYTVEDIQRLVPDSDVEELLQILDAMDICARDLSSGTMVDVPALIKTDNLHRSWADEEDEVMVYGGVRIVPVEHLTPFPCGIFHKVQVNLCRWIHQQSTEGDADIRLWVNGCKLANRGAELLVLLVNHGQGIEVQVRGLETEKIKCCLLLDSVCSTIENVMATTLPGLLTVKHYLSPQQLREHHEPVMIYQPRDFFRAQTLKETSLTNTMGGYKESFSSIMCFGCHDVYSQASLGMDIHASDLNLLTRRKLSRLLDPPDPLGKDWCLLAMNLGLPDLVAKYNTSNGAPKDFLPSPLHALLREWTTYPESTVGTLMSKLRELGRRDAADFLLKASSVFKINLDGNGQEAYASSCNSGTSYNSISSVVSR

For `COc1cc(N(C)c2ccnc3ccc(C(F)(F)F)cc23)cc(OC)c1OC`, the % binding [1] was 94% and the % binding [2] was 79%.
`CCc1ccccc1C(=O)Nc1n[nH]c2c(C)c(F)c(C3C(C#N)=C(C)N(C)C(C)=C3C#N)cc12` [BAY-3827] showed a % of inhibition [3] of 30.5%.
Compound `COCC(=O)NC/C=C/c1ccc2ncnc(Nc3ccc(Oc4ccc(C)nc4)c(C)c3)c2c1` [CP-724714] has a % of control [4] of 100% and a % of control [5] of 100%.
`CNCCN1CCC(c2cc(CN(C)C(=O)c3cccc(Oc4ccccc4)c3)ccn2)CC1` was tested, and the % activity [6] was over 90%.
Compound `C=CC(=O)Nc1cc(-n2c(=O)ccc3cnc4ccc(-c5ccc(NS(C)(=O)=O)cc5)cc4c32)ccc1C` has a % of control ([7]; at 1 µM) of 100% and a % of control ([7]; at 10 µM) of 100%.
Work on `Nc1cnc(N2CCc3cc(S(=O)(=O)Nc4c(F)cc(Cl)cc4F)cc(N4CCCC4=O)c32)nc1` [TP-020n] yielded a % of control [8] of 83%.
With `O=C(NOC[C@H](O)CO)c1ccc(F)c(F)c1Nc1ccc(I)cc1F` the % of control [9] was 77%.
`Cc1cc(CN)cc(C)c1-c1ncn(C)c1-c1cncn1C` was tested, and the % activity ([10]; at 1 µM) was over 90% and the % activity ([10]; at 10 µM) was over 80%.
In the case of `CC(=O)Nc1cccc(-n2c(=O)n(C3CC3)c(=O)c3c(Nc4ccc(I)cc4F)n(C)c(=O)c(C)c32)c1`, the % of control [11] is reported as 82%.
In the case of `Cc1ccc(-c2ccc3c(ccc4sc5c(c43)NC[C@@H](C)NC5=O)n2)cn1`, the % of inhibition [12] is reported as 5%, the % of inhibition [13] is reported as 11% and the % of inhibition [14] is reported as 33%.
`CC[C@@H]1[C@H](F)C(=O)N[C@@H]1COc1nccc2cc(C(N)=O)c(OC)cc12` [ZIMLOVISERTIB] showed a % of inhibition [15] of 2.51%.
